Source: ChEMBL document CHEMBL1201862, “PubChem BioAssay data set” (2004)
The source made the active and inactive calls.

Columns and labels:
[1] = target: Peroxisome proliferator-activated receptor gamma/Nuclear receptor coactivator 3 (Homo sapiens, UniProt P37231); experiment: TR-FRET dose response biochemical High Throughput Screening assay for agonists of the steroid receptor coactivator 3 (SRC-3) recruitment by the peroxisome proliferator-activated receptor gamma (PPAR gamma): non-selective agonists. [Related pubchem assays: 1301 (Confirmation screen.), 1048 (Primary screen.)]; format: functional
[2] = target: Cytochrome P450 2C19 (Homo sapiens, UniProt P33261); experiment: Cytochrome panel assay with activity outcomes. Panel member name: p450-cyp2c19 Compounds with AC50 equal or less than 10 uM are considered active; format: functional; details: read-out: AC50
Sequence of Cytochrome P450 2C19 (P33261 whole entry): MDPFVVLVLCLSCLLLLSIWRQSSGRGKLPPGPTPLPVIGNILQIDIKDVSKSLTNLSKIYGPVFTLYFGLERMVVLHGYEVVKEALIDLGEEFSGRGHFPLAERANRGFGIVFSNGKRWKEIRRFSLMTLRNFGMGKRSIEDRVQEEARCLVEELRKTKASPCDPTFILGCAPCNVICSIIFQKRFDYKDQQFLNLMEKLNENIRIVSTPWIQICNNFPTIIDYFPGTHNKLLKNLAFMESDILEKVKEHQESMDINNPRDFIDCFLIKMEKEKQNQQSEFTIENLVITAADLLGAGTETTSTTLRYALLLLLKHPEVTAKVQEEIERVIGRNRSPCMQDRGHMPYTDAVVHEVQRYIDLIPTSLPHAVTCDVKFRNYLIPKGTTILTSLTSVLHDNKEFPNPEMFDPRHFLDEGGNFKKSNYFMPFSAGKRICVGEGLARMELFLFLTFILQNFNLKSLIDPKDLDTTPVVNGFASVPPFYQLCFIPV

[3] = target: Peroxisome proliferator-activated receptor gamma/Nuclear receptor coactivator 2 (Homo sapiens, UniProt P37231); experiment: (§1) TR-FRET dose response biochemical High Throughput Screening assay for agonists of the steroid receptor coactivator 2 (SRC-2) recruitment by the peroxisome proliferator-activated receptor gamma (PPAR gamma): non-selective agonists. [Related pubchem assays: 1297, 1032 ]; format: functional
[4] = target: Peroxisome proliferator-activated receptor gamma/Nuclear receptor coactivator 1 (Homo sapiens, UniProt P37231); experiment: as §1, with “1 (SRC-1)” for “2 (SRC-2)”, “assays (depositor defined):AID1300, AID1808, AID504735, AID631]” for “assays: 1297, 1032 ]”; format: protein assay
[5] = target: Peroxisome proliferator-activated receptor gamma/Nuclear receptor corepressor 2 (Homo sapiens, UniProt P37231+Q9Y618); format: functional
[6] = target: Photoreceptor-specific nuclear receptor (Homo sapiens, UniProt Q9Y5X4); format: functional;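 also: potency for compounds that break the NR2E3 corepressor complex and count as activators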
Sequence of Photoreceptor-specific nuclear receptor (Q9Y5X4 whole entry): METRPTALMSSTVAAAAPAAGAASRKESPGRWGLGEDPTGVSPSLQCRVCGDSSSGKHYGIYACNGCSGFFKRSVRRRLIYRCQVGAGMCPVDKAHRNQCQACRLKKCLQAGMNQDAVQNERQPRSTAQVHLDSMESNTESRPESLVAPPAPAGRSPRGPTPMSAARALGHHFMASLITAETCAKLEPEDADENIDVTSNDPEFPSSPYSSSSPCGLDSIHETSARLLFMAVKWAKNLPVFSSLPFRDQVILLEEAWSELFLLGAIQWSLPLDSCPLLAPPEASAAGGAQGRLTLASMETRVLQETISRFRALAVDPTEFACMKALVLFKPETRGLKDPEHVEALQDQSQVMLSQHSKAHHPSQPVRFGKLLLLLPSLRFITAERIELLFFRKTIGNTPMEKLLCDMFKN

[7] = target: T1, Fructose-bisphosphate aldolase (Mycobacterium tuberculosis, UniProt P9WQA3); experiment: Fluorescence-based biochemical high throughput dose response assay for inhibitors of the fructose-bisphosphate aldolase (FBA) of M. tuberculosis.; format: functional
T1 sequence (P9WQA3 whole entry): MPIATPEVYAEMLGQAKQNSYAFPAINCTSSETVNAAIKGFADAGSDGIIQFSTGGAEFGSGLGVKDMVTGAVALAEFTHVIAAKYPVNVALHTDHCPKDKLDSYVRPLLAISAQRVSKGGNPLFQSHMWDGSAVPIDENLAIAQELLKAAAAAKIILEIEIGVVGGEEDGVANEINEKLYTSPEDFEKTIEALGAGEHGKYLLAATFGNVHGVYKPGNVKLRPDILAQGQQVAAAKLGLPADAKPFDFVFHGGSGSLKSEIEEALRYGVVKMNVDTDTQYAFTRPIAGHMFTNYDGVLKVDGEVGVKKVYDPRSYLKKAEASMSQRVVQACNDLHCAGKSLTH

[8] = target: Cyclin-dependent kinase 5/CDK5 activator 1 (Homo sapiens, UniProt Q00535); experiment: blockade of human CDK5 activity – biochemical, cherry-picked samples, set 2, dose response (AID 504545)
[9] = A small molecule screen for inhibitors of the PhoP region in Salmonella typhi (3) using purified and synthesized compounds. [Related pubchem assays (depositor defined):AID1850, AID1864, AID1985, AID2252, AID2384, AID2612, AID2811, AID449743, AID463179]; format: functional
[10] = target: G2/mitotic-specific cyclin-B1 (Homo sapiens, UniProt P14635); experiment: HeLa cell cycle G2/M accumulation – FACS, mechanism study for Wee1 degradation inhibitor project, late-stage follow-up, panel member Cyclin B Degradation (AID 2088)
Sequence of G2/mitotic-specific cyclin-B1 (P14635 whole entry): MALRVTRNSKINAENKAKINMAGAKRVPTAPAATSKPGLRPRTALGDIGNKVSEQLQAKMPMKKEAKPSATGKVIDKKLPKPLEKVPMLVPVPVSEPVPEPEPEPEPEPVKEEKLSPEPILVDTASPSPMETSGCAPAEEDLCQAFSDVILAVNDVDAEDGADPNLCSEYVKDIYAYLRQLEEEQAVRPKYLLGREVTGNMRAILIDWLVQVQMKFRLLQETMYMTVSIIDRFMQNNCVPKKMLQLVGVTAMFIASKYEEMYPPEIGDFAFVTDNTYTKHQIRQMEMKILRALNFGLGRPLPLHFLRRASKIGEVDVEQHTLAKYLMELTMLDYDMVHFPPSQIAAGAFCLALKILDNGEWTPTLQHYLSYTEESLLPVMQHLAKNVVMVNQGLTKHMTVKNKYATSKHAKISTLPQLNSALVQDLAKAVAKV

[11] = target: Wee1-like protein kinase (Homo sapiens, UniProt P30291); experiment: HeLa cell cycle G2/M accumulation – FACS, mechanism study for Wee1 degradation inhibitor project, late-stage follow-up, panel member Wee1 Degradation (AID 2088)
Sequence of Wee1-like protein kinase (P30291 whole entry, the tested form may be a part): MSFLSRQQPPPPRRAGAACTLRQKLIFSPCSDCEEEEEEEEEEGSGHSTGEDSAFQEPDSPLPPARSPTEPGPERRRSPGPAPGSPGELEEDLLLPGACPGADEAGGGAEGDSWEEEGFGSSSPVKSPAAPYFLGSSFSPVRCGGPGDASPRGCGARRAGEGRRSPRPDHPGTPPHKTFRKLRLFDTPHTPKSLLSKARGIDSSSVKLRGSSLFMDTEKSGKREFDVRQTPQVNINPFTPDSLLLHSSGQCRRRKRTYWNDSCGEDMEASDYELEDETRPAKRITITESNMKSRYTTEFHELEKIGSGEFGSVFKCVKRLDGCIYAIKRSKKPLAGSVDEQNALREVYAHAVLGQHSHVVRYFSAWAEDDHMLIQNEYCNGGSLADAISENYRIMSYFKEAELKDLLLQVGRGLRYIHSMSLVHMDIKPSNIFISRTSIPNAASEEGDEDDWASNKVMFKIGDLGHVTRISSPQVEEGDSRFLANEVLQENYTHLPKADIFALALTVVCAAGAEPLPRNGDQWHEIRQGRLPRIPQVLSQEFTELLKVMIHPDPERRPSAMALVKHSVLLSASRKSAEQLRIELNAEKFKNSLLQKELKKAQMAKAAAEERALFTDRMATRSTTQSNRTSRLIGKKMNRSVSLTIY

[12] = target: T2, RNA-binding protein pos-1 (Caenorhabditis elegans, UniProt G5EF15); experiment: disruptors of C. elegans POS-1 RNA interaction – biochemical, fluorescence polarization, dose response (AID 1964);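 also: purified POS-1 fused to maltose binding protein made in E. coli; potency of compounds blocking POS-1 binding to fluorescent RNA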
T2 sequence (G5EF15 whole entry): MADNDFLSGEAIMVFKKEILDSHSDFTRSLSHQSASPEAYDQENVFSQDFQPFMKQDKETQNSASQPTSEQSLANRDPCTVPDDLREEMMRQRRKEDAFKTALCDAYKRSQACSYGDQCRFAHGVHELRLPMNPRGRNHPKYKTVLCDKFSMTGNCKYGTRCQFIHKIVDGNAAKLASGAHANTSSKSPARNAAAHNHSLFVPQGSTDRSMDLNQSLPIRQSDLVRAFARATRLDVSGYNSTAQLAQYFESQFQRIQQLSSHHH

[13] = target: ORF 73 (Human herpesvirus 8, UniProt O40947); experiment: KSHV LANA DNA-binding disruption – biochemical, fluorescence polarization, cherry-picked samples, dose response (AID 504725); design: species or system Human gammaherpesvirus 8;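 also: fluorescence polarization of a labeled DNA duplex reporting LANA DNA binding; potency is for inhibitors that block LANA binding to the DNA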
Sequence of ORF 73 (O40947 whole entry): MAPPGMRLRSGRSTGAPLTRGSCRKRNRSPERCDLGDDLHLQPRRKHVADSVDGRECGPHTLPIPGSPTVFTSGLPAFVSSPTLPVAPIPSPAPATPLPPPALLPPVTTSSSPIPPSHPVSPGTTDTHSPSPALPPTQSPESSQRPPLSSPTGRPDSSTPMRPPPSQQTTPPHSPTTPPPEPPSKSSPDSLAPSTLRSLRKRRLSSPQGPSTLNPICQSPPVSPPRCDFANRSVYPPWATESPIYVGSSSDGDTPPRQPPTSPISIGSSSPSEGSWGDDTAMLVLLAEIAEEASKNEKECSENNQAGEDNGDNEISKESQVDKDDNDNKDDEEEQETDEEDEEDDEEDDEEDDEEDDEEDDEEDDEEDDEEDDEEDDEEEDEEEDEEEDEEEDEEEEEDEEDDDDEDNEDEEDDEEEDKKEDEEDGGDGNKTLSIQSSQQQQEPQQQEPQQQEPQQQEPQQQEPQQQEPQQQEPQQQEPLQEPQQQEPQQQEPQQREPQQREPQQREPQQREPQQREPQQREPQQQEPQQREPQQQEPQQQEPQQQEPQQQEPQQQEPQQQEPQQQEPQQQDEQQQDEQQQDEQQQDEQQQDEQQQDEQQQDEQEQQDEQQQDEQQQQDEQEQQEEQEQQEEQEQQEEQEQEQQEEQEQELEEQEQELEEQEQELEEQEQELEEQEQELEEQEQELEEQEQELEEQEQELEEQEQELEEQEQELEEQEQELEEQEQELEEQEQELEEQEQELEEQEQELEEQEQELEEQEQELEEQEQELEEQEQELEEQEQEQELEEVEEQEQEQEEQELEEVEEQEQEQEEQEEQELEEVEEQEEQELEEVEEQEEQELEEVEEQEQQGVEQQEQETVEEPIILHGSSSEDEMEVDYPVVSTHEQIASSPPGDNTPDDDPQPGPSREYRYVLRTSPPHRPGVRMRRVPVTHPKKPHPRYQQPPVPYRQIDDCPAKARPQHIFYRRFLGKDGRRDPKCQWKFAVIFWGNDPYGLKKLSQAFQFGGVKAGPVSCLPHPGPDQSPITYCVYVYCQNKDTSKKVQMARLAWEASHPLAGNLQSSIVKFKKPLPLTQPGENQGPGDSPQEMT

[14] = target: Heat shock 70 kDa protein 1A (Homo sapiens, UniProt P0DMV8); experiment: inhibition of Hsp70 binding activity – biochemical, fluorescence polarization, SAR follow-up (AID 1072)
Sequence of Heat shock 70 kDa protein 1A (P0DMV8 whole entry): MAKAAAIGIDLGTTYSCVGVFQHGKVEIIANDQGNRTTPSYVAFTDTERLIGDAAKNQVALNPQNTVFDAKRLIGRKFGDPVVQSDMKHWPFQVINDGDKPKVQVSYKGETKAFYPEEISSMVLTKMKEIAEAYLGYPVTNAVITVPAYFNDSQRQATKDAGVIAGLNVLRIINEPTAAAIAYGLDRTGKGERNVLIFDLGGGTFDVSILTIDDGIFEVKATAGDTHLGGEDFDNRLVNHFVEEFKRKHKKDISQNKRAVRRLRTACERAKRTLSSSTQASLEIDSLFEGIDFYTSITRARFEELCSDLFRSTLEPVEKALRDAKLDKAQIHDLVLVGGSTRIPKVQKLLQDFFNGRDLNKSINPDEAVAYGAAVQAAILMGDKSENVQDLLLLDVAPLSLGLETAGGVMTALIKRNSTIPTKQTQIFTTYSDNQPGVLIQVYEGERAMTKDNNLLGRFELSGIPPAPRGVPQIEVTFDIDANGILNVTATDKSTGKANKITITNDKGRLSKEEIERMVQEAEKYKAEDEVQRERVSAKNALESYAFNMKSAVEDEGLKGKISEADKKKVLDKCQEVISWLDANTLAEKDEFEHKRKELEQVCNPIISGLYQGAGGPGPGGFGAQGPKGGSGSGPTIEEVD

[15] = target: Heat shock cognate 71 kDa protein (Homo sapiens, UniProt P11142); experiment: In Vitro Hsc70 Dose Response Fluorescence Polarization Assay. [Related pubchem assays: 1072 ]
Sequence of Heat shock cognate 71 kDa protein (P11142 whole entry): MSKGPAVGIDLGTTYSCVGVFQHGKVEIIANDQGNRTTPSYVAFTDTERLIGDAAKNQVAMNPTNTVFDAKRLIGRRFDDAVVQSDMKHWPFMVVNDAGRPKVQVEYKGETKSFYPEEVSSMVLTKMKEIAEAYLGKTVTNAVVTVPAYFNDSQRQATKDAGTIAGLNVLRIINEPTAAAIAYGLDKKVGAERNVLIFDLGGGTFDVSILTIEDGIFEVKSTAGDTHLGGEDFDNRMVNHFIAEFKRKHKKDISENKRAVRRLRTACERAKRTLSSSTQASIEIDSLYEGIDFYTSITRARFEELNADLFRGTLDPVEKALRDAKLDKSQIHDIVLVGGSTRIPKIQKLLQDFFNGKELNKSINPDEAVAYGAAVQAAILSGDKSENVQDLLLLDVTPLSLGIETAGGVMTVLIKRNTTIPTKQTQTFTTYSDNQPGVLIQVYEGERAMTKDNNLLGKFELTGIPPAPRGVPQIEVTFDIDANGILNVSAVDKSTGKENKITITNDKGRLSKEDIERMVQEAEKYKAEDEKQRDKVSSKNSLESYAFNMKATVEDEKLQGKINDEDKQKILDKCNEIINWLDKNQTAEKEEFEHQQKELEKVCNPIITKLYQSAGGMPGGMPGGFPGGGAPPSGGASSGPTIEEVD

[16] = target: T3, Tyrosine-protein phosphatase non-receptor type 7 (Homo sapiens, UniProt P35236); format: functional
T3 sequence (P35236 whole entry): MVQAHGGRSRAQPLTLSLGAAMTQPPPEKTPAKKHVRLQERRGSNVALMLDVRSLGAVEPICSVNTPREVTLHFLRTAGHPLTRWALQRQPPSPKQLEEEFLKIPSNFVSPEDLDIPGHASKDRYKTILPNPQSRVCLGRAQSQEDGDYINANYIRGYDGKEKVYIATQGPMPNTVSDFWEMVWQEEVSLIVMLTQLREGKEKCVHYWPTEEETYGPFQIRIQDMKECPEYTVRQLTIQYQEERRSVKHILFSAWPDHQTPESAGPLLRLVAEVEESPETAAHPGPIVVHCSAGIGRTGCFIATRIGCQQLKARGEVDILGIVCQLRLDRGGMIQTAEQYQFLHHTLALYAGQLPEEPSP

[17] = target: Glyceraldehyde-3-phosphate dehydrogenase (Homo sapiens, UniProt P04406)
Sequence of Glyceraldehyde-3-phosphate dehydrogenase (P04406 whole entry): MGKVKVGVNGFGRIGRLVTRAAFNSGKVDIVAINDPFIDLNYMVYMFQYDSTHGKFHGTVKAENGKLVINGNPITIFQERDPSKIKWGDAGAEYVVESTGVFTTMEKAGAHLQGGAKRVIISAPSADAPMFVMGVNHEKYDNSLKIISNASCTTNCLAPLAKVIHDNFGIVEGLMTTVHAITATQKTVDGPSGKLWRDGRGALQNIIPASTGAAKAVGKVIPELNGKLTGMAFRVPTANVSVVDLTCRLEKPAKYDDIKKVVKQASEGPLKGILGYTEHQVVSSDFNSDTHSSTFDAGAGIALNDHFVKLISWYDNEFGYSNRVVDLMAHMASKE

[18] = target: T4, Cysteine protease ATG4B (Homo sapiens, UniProt Q9Y4P1); format: functional;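 also: Fluorescence-based dose-response confirmation assay measuring inhibition of ATG4B activity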
T4 sequence (Q9Y4P1 whole entry): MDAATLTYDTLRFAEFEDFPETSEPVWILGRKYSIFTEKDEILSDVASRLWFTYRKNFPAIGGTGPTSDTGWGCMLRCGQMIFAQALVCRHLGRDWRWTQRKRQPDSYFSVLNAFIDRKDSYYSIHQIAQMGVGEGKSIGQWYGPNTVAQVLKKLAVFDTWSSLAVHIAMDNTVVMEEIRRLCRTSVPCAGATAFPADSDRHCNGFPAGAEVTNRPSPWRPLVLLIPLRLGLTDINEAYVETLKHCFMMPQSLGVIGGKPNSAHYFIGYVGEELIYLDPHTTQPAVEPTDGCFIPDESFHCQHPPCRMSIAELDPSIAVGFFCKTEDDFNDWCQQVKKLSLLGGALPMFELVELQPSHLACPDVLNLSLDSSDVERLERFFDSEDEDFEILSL

[19] = target: Phospholipase A2 (Homo sapiens, UniProt P04054); format: functional;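 also: confirmatory dose-response counterscreen on phospholipase A2, testing hits that came from an ultra-high-throughput screen for ATG4B inhibitors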
Sequence of Phospholipase A2 (P04054 whole entry): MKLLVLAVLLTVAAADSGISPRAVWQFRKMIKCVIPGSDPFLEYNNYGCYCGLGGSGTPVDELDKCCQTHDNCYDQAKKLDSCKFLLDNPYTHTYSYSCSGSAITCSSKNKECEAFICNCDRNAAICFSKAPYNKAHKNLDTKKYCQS

[20] = target: T5, Dual specificity protein phosphatase 6 (Rattus norvegicus, UniProt Q64346); format: functional
T5 sequence (Q64346 whole entry): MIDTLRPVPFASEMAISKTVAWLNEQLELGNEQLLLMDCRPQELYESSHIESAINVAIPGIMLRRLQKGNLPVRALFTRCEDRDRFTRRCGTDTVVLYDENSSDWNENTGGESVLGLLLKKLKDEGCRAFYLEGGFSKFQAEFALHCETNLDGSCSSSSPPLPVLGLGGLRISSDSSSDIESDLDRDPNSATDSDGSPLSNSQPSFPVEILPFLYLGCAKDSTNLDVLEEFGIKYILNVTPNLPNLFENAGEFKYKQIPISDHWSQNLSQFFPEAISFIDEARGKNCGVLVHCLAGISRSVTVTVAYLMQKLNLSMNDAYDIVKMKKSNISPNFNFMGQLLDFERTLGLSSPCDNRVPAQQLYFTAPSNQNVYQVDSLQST

[21] = tested on: HeLa; experiment: viability loss in HeLa cells – cell-based, 24 h, cherry-picked samples, cytotoxicity control, dose response (AID 504726); format: functional; details: Homo sapiens;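 also: potency for cytotoxicity as loss of luminescence signal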
[22] = target: T5, Dual specificity protein phosphatase 6
[23] = target: T6, Zinc finger protein mex-5 (Caenorhabditis elegans, UniProt Q9XUB2); experiment: potency of MEX-5 RNA-binding blockers – biochemical, C. elegans, fluorescence polarization, dose response (AID 1960)
T6 sequence (Q9XUB2 whole entry): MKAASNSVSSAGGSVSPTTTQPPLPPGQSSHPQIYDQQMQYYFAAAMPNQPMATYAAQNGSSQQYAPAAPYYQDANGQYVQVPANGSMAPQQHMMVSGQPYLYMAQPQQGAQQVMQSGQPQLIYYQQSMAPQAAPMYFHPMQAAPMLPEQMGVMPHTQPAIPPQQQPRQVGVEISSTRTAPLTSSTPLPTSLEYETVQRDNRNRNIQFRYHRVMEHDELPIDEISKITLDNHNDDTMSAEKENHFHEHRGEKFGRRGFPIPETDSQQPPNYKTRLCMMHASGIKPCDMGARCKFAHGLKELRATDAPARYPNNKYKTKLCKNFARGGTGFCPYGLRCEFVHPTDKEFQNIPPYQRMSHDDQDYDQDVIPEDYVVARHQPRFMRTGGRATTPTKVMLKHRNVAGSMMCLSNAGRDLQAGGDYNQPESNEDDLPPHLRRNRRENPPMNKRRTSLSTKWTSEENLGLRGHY

[24] = tested on: Vero; experiment: viability of Vero cells under compound – cytotoxicity control for flavivirus capping enzyme inhibitors (AID 588742); format: functional; details: Chlorocebus sabaeus

CN(C)CCN1C(=O)C(O)=C(C(=O)c2cc3ccccc3o2)C1c1cccc(Br)c1 (centres undefined)
EC50 [1]: > 79.4 µM (not active)
AC50 [2]: 31.6 µM (inconclusive)
EC50 [3]: > 79.4 µM (not active)
EC50 [4]: > 79.4 µM (inactive)
IC50 [5]: 2.25 µM (active)
IC50 [6]: > 39.8 µM (not active)

CNS(=O)(=O)c1ccc2c3c(cccc13)C(=O)N2
IC50 [7]: 1.6 µM (active)
AC50 [8]: 32.6 µM (active)

Cc1cccc(NC(=O)N2CCCN(Cc3ccccc3F)C2)c1
IC50 [9]: > 150 µM (active)

Cc1ccc(NC(=O)COc2cc(=O)n(C)c3ccccc23)nc1
EC50 [10]: > 49.7 µM (inactive)
EC50 [11]: > 49.7 µM (inactive)

O=C(O)C1Nc2ccc(Br)cc2C2C=CCC12 (centres undefined)
EC50 [12]: 9.81 µM (active)
AC50 [13]: 29.2 µM (active)
IC50 [14]: 3.24 µM (active)
IC50 [15]: > 100 µM (not active)
IC50 [16]: 1.63 µM (active)
IC50 [17]: 28.7 µM (active)
IC50 [18]: 3.94 µM (active)
IC50 [19]: 8.24 µM (active)
IC50 [20]: 12.3 µM (active)
AC50 [21]: 106 µM (active)
IC50 [22]: 12.8 µM (active)
EC50 [23]: 6.32 µM (active)
CC50 [24]: > 40 µM (active)
